Source: PubChem BioAssay AID1963842 (Molecular Pharmacology Branch, DTP, NCI, 2024)

Test system: 677734-321-R-J1-PDC complex spheroid viability
Test: Anticancer human tumor 677734-321-R-J1-PDC patient-derived soft tissue sarcoma cell line growth inhibition [POLQ]
Details: for IC50: curve of first compound; for viability, T/C: stronger effect = lower value
Summary of the method: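 Growth inhibition in 3D: complex spheroids (tumor PDC, HUVEC, MSC) treated with POLQ inhibitor combinations; where Cmax unknown, highest tested concentration 10 microM, except SN-38 at 1 microM.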

[1] = second compound 0.0316 µM, first compound 0.00949 µM
[2] = second compound 0.0316 µM, first compound 0.03 µM
[3] = second compound 0.0316 µM, first compound 0.0949 µM
[4] = second compound 0.0316 µM, first compound 0.3 µM
[5] = second compound 0.0316 µM, first compound 0.949 µM
[6] = second compound 0.0316 µM, first compound 3 µM
[7] = second compound 0.1 µM, first compound 0.00949 µM
[8] = second compound 0.1 µM, first compound 0.03 µM
[9] = second compound 0.1 µM, first compound 0.0949 µM
[10] = second compound 0.1 µM, first compound 0.3 µM
[11] = second compound 0.1 µM, first compound 0.949 µM
[12] = second compound 0.1 µM, first compound 3 µM
[13] = second compound 0.316 µM, first compound 0.00949 µM
[14] = second compound 0.316 µM, first compound 0.03 µM
[15] = second compound 0.316 µM, first compound 0.0949 µM
[16] = second compound 0.316 µM, first compound 0.3 µM
[17] = second compound 0.316 µM, first compound 0.949 µM
[18] = second compound 0.316 µM, first compound 3 µM
[19] = second compound 1 µM, first compound 0.00949 µM
[20] = second compound 1 µM, first compound 0.03 µM
[21] = second compound 1 µM, first compound 0.0949 µM
[22] = second compound 1 µM, first compound 0.3 µM
[23] = second compound 1 µM, first compound 0.949 µM
[24] = second compound 1 µM, first compound 3 µM
[25] = second compound 3.16 µM, first compound 0.00949 µM
[26] = second compound 3.16 µM, first compound 0.03 µM
[27] = second compound 3.16 µM, first compound 0.0949 µM
[28] = second compound 3.16 µM, first compound 0.3 µM
[29] = second compound 3.16 µM, first compound 0.949 µM
[30] = second compound 3.16 µM, first compound 3 µM
[31] = second compound 10 µM, first compound 0.00949 µM
[32] = second compound 10 µM, first compound 0.03 µM
[33] = second compound 10 µM, first compound 0.0949 µM
[34] = second compound 10 µM, first compound 0.3 µM
[35] = second compound 10 µM, first compound 0.949 µM
[36] = second compound 10 µM, first compound 3 µM
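Note: spheroids exposed to compounds for one week.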
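Throughout, for viability, T/C: 100% = vehicle DMSO treated spheroids.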

Work on `CC(=O)O[C@H]1C(=O)[C@@]2(C)[C@H]([C@H](OC(=O)c3ccccc3)[C@]3(O)C[C@H](OC(=O)[C@H](O)[C@@H](NC(=O)c4ccccc4)c4ccccc4)C(C)=C1C3(C)C)[C@]1(OC(C)=O)CO[C@@H]1C[C@@H]2O` + Cc1cccc(N(C)C(=O)C2C(O)CCN2c2nc(C)cc(C(F)(F)F)c2C#N)c1 yielded an IC50 (second compound 0.0316 µM) of less than 0.00949 µM, an IC50 (second compound 0.1 µM) of less than 0.00949 µM and an IC50 (second compound 0.316 µM) of less than 0.00949 µM. For the same compound, the IC50 (second compound 1 µM) was less than 0.00949 µM, the IC50 (second compound 3.16 µM) was less than 0.00949 µM and the IC50 (second compound 10 µM) was less than 0.00949 µM. It also gave a viability, T/C [1] of 21.8%, a viability, T/C [2] of 14.4% and a viability, T/C [3] of 14.1%. The viability, T/C [4] was 12.6%, the viability, T/C [5] was 10.9% and the viability, T/C [6] was 12.8%. The viability, T/C [7] was 23.7%, the viability, T/C [8] was 16.1% and the viability, T/C [9] was 13.6%. The viability, T/C [10] was 13.3%, the viability, T/C [11] was 13.5% and the viability, T/C [12] was 15.6%. It also gave a viability, T/C [13] of 22.8%, a viability, T/C [14] of 18.9% and a viability, T/C [15] of 12.4%. It also gave a viability, T/C [16] of 10.3%, a viability, T/C [17] of 12.4% and a viability, T/C [18] of 13.9%. The viability, T/C [19] was 26%, the viability, T/C [20] was 23.1% and the viability, T/C [21] was 14%. It also gave a viability, T/C [22] of 11.4%, a viability, T/C [23] of 9.6% and a viability, T/C [24] of 9.4%. For the same compound, the viability, T/C [25] was 23.6%, the viability, T/C [26] was 13.4% and the viability, T/C [27] was 12.2%. The viability, T/C [28] was 12.8%, the viability, T/C [29] was 12% and the viability, T/C [30] was 14.6%. It also gave a viability, T/C [31] of 27.3%, a viability, T/C [32] of 12.4% and a viability, T/C [33] of 12.2%. The viability, T/C [34] was 14.5%, the viability, T/C [35] was 11.3% and the viability, T/C [36] was 11.4%.
`CC1COCCN1c1cc(C2(O)CC3CCC(C2)O3)c2cnn(-c3ccn[nH]3)c2n1` (stereo unspecified) + Cc1cccc(N(C)C(=O)C2C(O)CCN2c2nc(C)cc(C(F)(F)F)c2C#N)c1 showed an IC50 (second compound 0.0316 µM) of 0.0962 µM, an IC50 (second compound 0.1 µM) of 0.122 µM and an IC50 (second compound 0.316 µM) of 0.0957 µM. For the same compound, the IC50 (second compound 1 µM) was 0.0991 µM, the IC50 (second compound 3.16 µM) was 0.0832 µM and the IC50 (second compound 10 µM) was 0.0803 µM. The viability, T/C (second compound 0.0316 µM, first compound 0.0316 µM) was 76.5%, the viability, T/C (second compound 0.0316 µM, first compound 0.1 µM) was 49% and the viability, T/C (second compound 0.0316 µM, first compound 0.316 µM) was 26.5%. The viability, T/C (second compound 0.0316 µM, first compound 1 µM) was 19%, the viability, T/C (second compound 0.0316 µM, first compound 3.16 µM) was 17.3% and the viability, T/C (second compound 0.0316 µM, first compound 10 µM) was 17.8%. For the same compound, the viability, T/C (second compound 0.1 µM, first compound 0.0316 µM) was 87.8%, the viability, T/C (second compound 0.1 µM, first compound 0.1 µM) was 54.8% and the viability, T/C (second compound 0.1 µM, first compound 0.316 µM) was 27.2%. The viability, T/C (second compound 0.1 µM, first compound 1 µM) was 22.5%, the viability, T/C (second compound 0.1 µM, first compound 3.16 µM) was 22.2% and the viability, T/C (second compound 0.1 µM, first compound 10 µM) was 16.9%. For the same compound, the viability, T/C (second compound 0.316 µM, first compound 0.0316 µM) was 83.6%, the viability, T/C (second compound 0.316 µM, first compound 0.1 µM) was 48.9% and the viability, T/C (second compound 0.316 µM, first compound 0.316 µM) was 28.1%. It also gave a viability, T/C (second compound 0.316 µM, first compound 1 µM) of 21%, a viability, T/C (second compound 0.316 µM, first compound 3.16 µM) of 18.3% and a viability, T/C (second compound 0.316 µM, first compound 10 µM) of 15.2%. For the same compound, the viability, T/C (second compound 1 µM, first compound 0.0316 µM) was 94.2%, the viability, T/C (second compound 1 µM, first compound 0.1 µM) was 49.6% and the viability, T/C (second compound 1 µM, first compound 0.316 µM) was 26.1%. It also gave a viability, T/C (second compound 1 µM, first compound 1 µM) of 18%, a viability, T/C (second compound 1 µM, first compound 3.16 µM) of 17.4% and a viability, T/C (second compound 1 µM, first compound 10 µM) of 16.4%. It also gave a viability, T/C (second compound 3.16 µM, first compound 0.0316 µM) of 85.5%, a viability, T/C (second compound 3.16 µM, first compound 0.1 µM) of 43.4% and a viability, T/C (second compound 3.16 µM, first compound 0.316 µM) of 25.1%. It also gave a viability, T/C (second compound 3.16 µM, first compound 1 µM) of 18.4%, a viability, T/C (second compound 3.16 µM, first compound 3.16 µM) of 28.6% and a viability, T/C (second compound 3.16 µM, first compound 10 µM) of 14%. It also gave a viability, T/C (second compound 10 µM, first compound 0.0316 µM) of 85.6%, a viability, T/C (second compound 10 µM, first compound 0.1 µM) of 41.3% and a viability, T/C (second compound 10 µM, first compound 0.316 µM) of 24.2%. For the same compound, the viability, T/C (second compound 10 µM, first compound 1 µM) was 21.8%, the viability, T/C (second compound 10 µM, first compound 3.16 µM) was 16.9% and the viability, T/C (second compound 10 µM, first compound 10 µM) was 15.7%.
With `CC(=O)O[C@H]1C(=O)[C@@]2(C)[C@H]([C@H](OC(=O)c3ccccc3)[C@]3(O)C[C@H](OC(=O)[C@H](O)[C@@H](NC(=O)c4ccccc4)c4ccccc4)C(C)=C1C3(C)C)[C@]1(OC(C)=O)CO[C@@H]1C[C@@H]2O` + Nc1ccc(C#CCN(C(=O)Cc2ncc(C(F)(F)F)cc2C(F)(F)F)c2ccc(F)cc2)nn1 the IC50 (second compound 0.0316 µM) was less than 0.00949 µM, the IC50 (second compound 0.1 µM) was less than 0.00949 µM and the IC50 (second compound 0.316 µM) was less than 0.00949 µM. For the same compound, the IC50 (second compound 1 µM) was less than 0.00949 µM, the IC50 (second compound 3.16 µM) was less than 0.00949 µM and the IC50 (second compound 10 µM) was less than 0.00949 µM. For the same compound, the viability, T/C [1] was 21.6%, the viability, T/C [2] was 15% and the viability, T/C [3] was 13.9%. It also gave a viability, T/C [4] of 14.6%, a viability, T/C [5] of 14.9% and a viability, T/C [6] of 17.6%. It also gave a viability, T/C [7] of 32.9%, a viability, T/C [8] of 18.3% and a viability, T/C [9] of 14.2%. The viability, T/C [10] was 13.9%, the viability, T/C [11] was 14.3% and the viability, T/C [12] was 16.1%. It also gave a viability, T/C [13] of 21.7%, a viability, T/C [14] of 17.9% and a viability, T/C [15] of 14.7%. For the same compound, the viability, T/C [16] was 11.6%, the viability, T/C [17] was 13.8% and the viability, T/C [18] was 15.7%. It also gave a viability, T/C [19] of 32.7%, a viability, T/C [20] of 17.1% and a viability, T/C [21] of 16.6%. It also gave a viability, T/C [22] of 15%, a viability, T/C [23] of 13.3% and a viability, T/C [24] of 12.2%. The viability, T/C [25] was 34.1%, the viability, T/C [26] was 16.9% and the viability, T/C [27] was 11.8%. The viability, T/C [28] was 13.4%, the viability, T/C [29] was 13.5% and the viability, T/C [30] was 16.4%. For the same compound, the viability, T/C [31] was 28.8%, the viability, T/C [32] was 16.4% and the viability, T/C [33] was 12.6%. For the same compound, the viability, T/C [34] was 13.4%, the viability, T/C [35] was 13% and the viability, T/C [36] was 16.8%.
